7 compounds from ChEMBL document CHEMBL5036315, “Synthesis, Structure-Activity Relationships, and In Vivo Evaluation of Novel Tetrahydropyran-Based Thiodisaccharide Mimics as Galectin-3 Inhibitors” (J Med Chem, 2021) can be followed below.

In brackets after ≈: the same amount, converted by molar mass.

Data set [1] is described as follows: Aqueous solubility of the compound at pH 1. The data set is classed as physicochemical. As to conditions: aqueous solution.
A short description of data set [2]: Volume of distribution at steady state in C57BL/6 mouse at 2 mg/kg, iv measured upto 24 hrs. In kind it is ADME, organism-based. As to conditions: in vivo.
Data set [3] in a line: Clearance in C57BL/6 mouse at 2 mg/kg, iv measured upto 24 hrs. The data set is classed as ADME, organism-based. As to conditions: in vivo.
Data set [4] is described as follows: Half life in C57BL/6 mouse at 2 mg/kg, iv measured upto 24 hrs. The data set is classed as ADME, organism-based. To be noted: in vivo.
Data set [5] in a line: AUC in C57BL/6 mouse at 30 mg/kg, po measured upto 24 hrs. The data set is classed as ADME, organism-based. More on the design: route oral, dose 30 mg/kg, time <=24. As to conditions: in vivo.
Data set [6] is described as follows: Oral bioavailability in C57BL/6 mouse at 30 mg/kg measured upto 24 hrs. The data set is classed as ADME, organism-based. To be noted: in vivo.
Data set [7] can be described thus: Cmax in C57BL/6 mouse at 30 mg/kg, po measured upto 24 hrs. Also on record: route oral, dose 30 mg/kg, time <=24. The data set is classed as ADME, organism-based. To be noted: in vivo.
Data set [8] in a line: Metabolic stability in human liver microsomes assessed as compound remaining at 0.5 uM incubated for10 mins in presence of NADPH by LC-MS/MS analysis. The data set is classed as ADME, Microsome. As to conditions: read-out: Stability. Background: Liver microsomes are a subcellular fraction often used to study metabolism.
A short description of data set [9]: Metabolic stability in mouse liver microsomes assessed as compound remaining at 0.5 uM incubated for10 mins in presence of NADPH by LC-MS/MS analysis. The data set is classed as ADME, Microsome. To be noted: read-out: Stability.
A short description of data set [10]: Cmax in C57BL/6 mouse at 30 mg/kg, sc measured upto 24 hrs. The data set is classed as ADME, organism-based. Also on record: route subcutaneous, dose 30 mg/kg, time <=24. As to conditions: in vivo.
A short description of data set [11]: Bioavailability in C57BL/6 mouse at 30 mg/kg, sc measured upto 24 hrs. The data set is classed as ADME, organism-based. As to conditions: in vivo.
Data set [12] is described as follows: AUC in C57BL/6 mouse at 30 mg/kg, sc measured upto 24 hrs. The data set is classed as ADME, organism-based. As to conditions: in vivo. Also on record: route subcutaneous, dose 30 mg/kg, time <=24.
Data set [13] can be described thus: Aqueous solubility of the compound at pH 7.4. In kind it is physicochemical. To be noted: aqueous solution.

The term solubility denotes how much of the substance goes into solution per volume. The low end stands for little dissolved substance, the high end for much dissolved substance. On to `CO[C@@H]1[C@@H](n2cc(-c3cc(F)c(F)c(F)c3)nn2)[C@@H](O)[C@@H](CO)O[C@H]1S[C@@H]1COC[C@H](n2cc(-c3nccs3)nn2)[C@H]1O`, for which, in data set [1], the solubility was below 1 µg/mL.
Broadly, the Vss is the apparent volume that relates the amount in the body to the concentration in plasma or blood. Higher therefore signals wide distribution into tissue. The clearance is the rate of elimination divided by the concentration. As usually defined, the half-life is the time in which the quantity being followed falls by half. Broadly, the AUC is concentration integrated over time. In general, bioavailability refers to dose-corrected exposure relative to a reference, in per cent. Low values mean little systemic uptake, high ones much systemic uptake. Broadly, the Cmax is the peak of the concentration-time curve. `CO[C@@H]1[C@@H](n2cc(-c3cc(F)c(F)c(F)c3)nn2)[C@@H](O)[C@@H](CO)O[C@H]1S[C@@H]1COC[C@H](n2cc(-c3cccc(F)c3)nn2)[C@H]1O`: the Vss in [2] came to 3.6 L/kg. The clearance in data set [3] amounted to 59 mL/min/kg. Also, in data set [4], the half-life was 1.9 h. The AUC at 24 h in data set [5] was determined as 0.3 µM·h. In data set [6], this compound showed a bioavailability of 2%. In data set [7], this compound gave a Cmax of 200 nM. The values for the remaining at 10 min, 0.5 µM in data set [8] and in data set [9] were 78% and 72%, respectively.
`COc1ncc(-c2cn([C@H]3COC[C@@H](S[C@@H]4O[C@H](CO)[C@H](O)[C@H](n5cc(-c6cc(F)c(F)c(F)c6)nn5)[C@H]4OC)[C@@H]3O)nn2)cn1` showed a solubility in data set [1] below 1 µg/mL.
With `CO[C@@H]1[C@@H](n2cc(-c3cc(F)c(F)c(F)c3)nn2)[C@@H](O)[C@@H](CO)O[C@H]1S[C@@H]1COC[C@H](n2cc(-c3cncnc3)nn2)[C@H]1O`, the Vss in data set [2] came to 2.4 L/kg. The solubility in [1] amounted to 6 µg/mL (≈ 9.42 µM); in [13], 3 µg/mL (≈ 4.71 µM). The same compound registered a Cmax in [10] of 5900 nM. For the same compound, the half-life in data set [4] is 1.4 h. In data set [11] (mouse, 30 mg/kg, 24 h), this compound gave an F of 100%. Moreover, in [12] (mouse, 24 h), the area under the curve (AUC) came to 49 µM·h. The remaining at 10 min, 0.5 µM in [8] amounted to 45%; in data set [9], 89%.
In data set [2], `CO[C@@H]1[C@@H](n2cc(-c3cc(F)c(F)c(F)c3)nn2)[C@@H](O)[C@@H](CO)O[C@H]1S[C@@H]1COC[C@H](n2cc(-c3cccc(O)c3)nn2)[C@H]1O` gave a Vss of 1.6 L/kg. The compound further displayed a clearance in data set [3] of 69 mL/min/kg. This compound had a half-life in [4] of 1.2 h. In [5], this compound gave an AUC at 24 h of 0.04 µM·h. The compound further registered a bioavailability in data set [6] of 0.3%. In data set [7], this compound gave a Cmax of 10 nM. For the same compound, the remaining at 10 min, 0.5 µM in data set [8] was found to be 98%; in data set [9], 92%.
Turning to `COc1cnc(-c2cn([C@H]3COC[C@@H](S[C@@H]4O[C@H](CO)[C@H](O)[C@H](n5cc(-c6cc(F)c(F)c(F)c6)nn5)[C@H]4OC)[C@@H]3O)nn2)nc1`, the solubility in [1] and in data set [13] was below 1 µg/mL each time.
For the compound `OC[C@H]1O[C@@H](S[C@@H]2O[C@H](CO)[C@H](O)[C@H](n3cc(-c4cccc(F)c4)nn3)[C@H]2O)[C@H](O)[C@@H](n2cc(-c3cccc(F)c3)nn2)[C@H]1O` [OLITIGALTIN], the Vss in data set [2] was found to be 0.7 L/kg. In addition, the Cmax in data set [10] is 10300 nM; in data set [7], 300 nM. In data set [3], this compound registered a clearance of 30 mL/min/kg. The compound further showed a half-life in data set [4] of 1.6 h. Also, the AUC at 24 h was found to be 0.3 µM·h in [5] and 17 µM·h in data set [12] (C57BL/6, mouse). The bioavailability in data set [6] was found to be 1%; in data set [11] (C57BL/6, mouse), 66%.
